Test results: patent publication US11597724B2, “Herbicidally active 3-phenylisoxazoline-5-carboxamides of tetrahydro and dihydrofuran carboxylic acids and esters” (Bayer Aktiengesellschaft, priority 2017, dated 2023)

Legend:
Assay type in all cases: in vivo
Avena fatua [1] = assay: Pre-emergence herbicidal activity against AVEFA; settings: dosage 80 g/ha; for pest or weed control at 80 g/ha: Avena fatua, 504 h, read-out: Pre-emergence herbicidal activity against AVEVA in % (AVEFA)
From the text: (§1) 1. Pre-Emergence Herbicidal Action and Crop Plant Compatibility Seeds of monocotyledonous and dicotyledonous weed plants and crop plants are placed in plastic or wood fiber pots and covered with soil. The compounds of the invention, formulated in the form of wettable powders (WP) or as emulsion concentrates (EC), are then applied onto the surface of the covering soil as aqueous suspension or emulsion with addition of 0.5% additive at a water application rate of 600 l/ha (converted). After the treatment, the pots are placed in a greenhouse and kept under good growth conditions for the trial plants. After about 3 weeks, the effect of the preparations is scored visually in comparison with untreated controls as percentages. For example, 100% activity=the plants have died, 0% activity=like control plants. AMARE: Amaranthus retroflexus AVEFA: Avena fatua

Lolium rigidum = assay: Pre-emergence herbicidal activity against LOLRI; settings: dosage 80 g/ha; for pest or weed control at 80 g/ha: Lolium rigidum, 504 h
From the text: as §1, with “LOLRI: Lolium rigidum PHBPU: Pharbitis purpurea” for “AMARE: Amaranthus retroflexus AVEFA: Avena fatua”

Amaranthus retroflexus [2] = assay: Pre-emergence herbicidal activity against AMARE; settings: dosage 80 g/ha; for pest or weed control at 80 g/ha: Amaranthus retroflexus, 504 h
From the text: as §1

Pharbitis purpurea = assay: Pre-emergence herbicidal activity against PHBPU; settings: dosage 80 g/ha; for pest or weed control at 80 g/ha: Ipomoea purpurea, 504 h
From the text: as §1, with “LOLRI: Lolium rigidum PHBPU: Pharbitis purpurea” for “AMARE: Amaranthus retroflexus AVEFA: Avena fatua”

Polygonum convolvulus = assay: Pre-emergence herbicidal activity against POLCO; settings: dosage 80 g/ha; for pest or weed control at 80 g/ha: Fallopia convolvulus, 504 h
From the text: as §1, with “POLCO: Polygonum convolvulus SETVI: Setaria viridis” for “AMARE: Amaranthus retroflexus AVEFA: Avena fatua”

Hordeum murinum = assay: Pre-emergence herbicidal activity against HORMU; settings: dosage 80 g/ha; for pest or weed control at 80 g/ha: Hordeum murinum, 504 h
From the text: as §1, with “ECHCG: Echinochloa crus-galli HORMU: Hordeum murinum” for “AMARE: Amaranthus retroflexus AVEFA: Avena fatua”

Avena fatua [3] = assay: Post-emergence herbicidal activity against AVEFA; settings: dosage 320 g/ha, rated about 3 weeks after treatment; for pest or weed control at 320 g/ha: Avena fatua, 504 h
Procedure, shortened: (§2)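 Greenhouse pots of sandy loam; plants sprayed at one-leaf stage, 2 to 3 weeks after sowing, with WP or EC formulations in water plus 0.5% additive at 600 l/ha. Activity rated visually after about 3 weeks against untreated controls (100% = plants dead, 0% = like control).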

Echinochloa crus-galli = assay: Post-emergence herbicidal activity against ECHCG; settings: dosage 320 g/ha, rated about 3 weeks after treatment; for pest or weed control at 320 g/ha: Echinochloa crus-galli, 504 h
Procedure, shortened: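 Greenhouse pot plants sprayed post-emergence at one-leaf stage (2-3 weeks after sowing) with WP or EC formulations, 0.5% additive, 600 l/ha water. Visual rating about 3 weeks later versus untreated controls: 100% = plants dead, 0% = like control.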

Amaranthus retroflexus [4] = assay: Post-emergence herbicidal activity against AMARE; settings: dosage 320 g/ha, rated about 3 weeks after treatment; for pest or weed control at 320 g/ha: Amaranthus retroflexus, 504 h
Procedure, shortened: as §2

SMILES	Pre-emergence herbicidal activity against AVEVA in % (AVEFA) (Avena fatua [1]) [%]	Pre-emergence herbicidal activity against LOLRI in % (Lolium rigidum) [%]	Pre-emergence herbicidal activity against AMARE in % (Amaranthus retroflexus [2]) [%]	Pre-emergence herbicidal activity against PHBPU in % (Pharbitis purpurea) [%]	Pre-emergence herbicidal activity against POLCO in % (Polygonum convolvulus) [%]	Pre-emergence herbicidal activity against HORMU in % (Hordeum murinum) [%]	Post-emergence herbicidal activity against AVEFA in % (Avena fatua [3]) [%]	Post-emergence herbicidal activity against ECHCG in % (Echinochloa crus-galli) [%]	Post-emergence herbicidal activity against AMARE in % (Amaranthus retroflexus [4]) [%]	pest or weed control at 80 g/ha (Avena fatua [1]) [%]	pest or weed control at 80 g/ha (Lolium rigidum) [%]	pest or weed control at 80 g/ha (Amaranthus retroflexus [2]) [%]	pest or weed control at 80 g/ha (Polygonum convolvulus) [%]	pest or weed control at 80 g/ha (Hordeum murinum) [%]	pest or weed control at 320 g/ha (Avena fatua [3]) [%]	pest or weed control at 320 g/ha (Echinochloa crus-galli) [%]	pest or weed control at 320 g/ha (Amaranthus retroflexus [4]) [%]	pest or weed control at 80 g/ha (Pharbitis purpurea) [%]
CC1(C(=O)NC2COC(C(=O)O)C2)CC(c2cc(F)cc(F)c2)=NO1 (mixture of isomers) [I-41]	100	100	90	90	90	100	100	100	100	–	–	–	–	–	–	–	–	–
C=C[C@]1(C(=O)N[C@H]2CO[C@@H](C(=O)OC(C)(C)C)C2)CC(c2cc(F)cc(F)c2)=NO1 (mixture of isomers) [I-38, tert-butyl cis-4-[[(5S)-3-(3,5-difluorophenyl)-5-vinyl-4H-isoxazole-5-carbonyl]amino]tetrahydrofuran-2-carboxylate]	–	–	–	–	–	–	–	–	–	90	100	100	100	90	90	90	100	–
COC(=O)[C@H]1C[C@@H](NC(=O)C2(C(F)(F)F)CC(c3cc(F)cc(F)c3)=NO2)CO1 (relative stereo) [I-06, methyl cis-4-[[3-(3,5-difluorophenyl)-5-(trifluoromethyl)-4H-isoxazole-5-carbonyl]amino]tetrahydrofuran-2-carboxylate]	–	–	–	–	–	–	–	–	–	90	–	–	100	–	90	90	80	80
CCOC(=O)C1CC(NC(=O)C2(C)CC(c3cc(F)cc(F)c3)=NO2)CO1 (mixture of isomers) [I-43]	100	100	90	–	100	90	100	100	80	–	–	–	–	–	–	–	–	–
C=C[C@]1(C(=O)N[C@H]2CO[C@@H](C(=O)OC)C2)CC(c2cc(F)cc(F)c2)=NO1 (single isomer, unassigned) [I-12]	–	–	–	–	–	–	100	90	90	100	100	100	100	100	–	–	–	–
C=C[C@]1(C(=O)NC2COCC2C(=O)OC)CC(c2cc(F)cc(F)c2)=NO1 (stereo partly drawn) [I-26, methyl 4-[[(5S)-3-(3,5-difluorophenyl)-5-vinyl-4H-isoxazole-5-carbonyl]amino]tetrahydrofuran-3-carboxylate]	–	–	–	–	–	–	–	–	–	90	–	100	–	–	90	90	80	90
C=CC1(C(=O)N[C@H]2CO[C@@H](C(=O)O)C2)CC(c2cc(F)cc(F)c2)=NO1 (relative stereo) [I-21, cis-4-[[3-(3,5-difluorophenyl)-5-vinyl-4H-isoxazole-5-carbonyl]amino]tetrahydrofuran-2-carboxylic acid]	–	–	–	–	–	–	–	–	–	90	–	100	90	–	90	80	100	80
